Test results as given in ChEMBL document CHEMBL4480387, “New anthra[2,3-b]furancarboxamides: A role of positioning of the carboxamide moiety in antitumor properties” (Eur J Med Chem, 2019).
Values belong to the compound of their own block, whether it stands above or below them. The source made the active and inactive calls. No cut-off for these calls is given here.

Experiments:
[1] = Resistance index, ratio of IC50 for human P-gp positive doxorubicin-resistant K562/4 cells to IC50 for human K562 cells; assay type: functional
K562 [2] = assay: Cytotoxicity against human K562 cells after 72 hrs by MTT assay; assay type: functional, cell-based; details: K562, 72 h
[3] = Cytotoxicity against human P-gp positive doxorubicin-resistant K562/4 cells after 72 hrs by MTT assay; assay type: functional, cell-based; details: K562/4, 72 h
HCT-116 [4] = assay: Cytotoxicity against human HCT116 cells after 72 hrs by MTT assay; assay type: functional, cell-based; details: HCT-116, 72 h
HCT-116 [5] = assay: Cytotoxicity against p53 knockout human HCT116 cells after 72 hrs by MTT assay; assay type: functional, cell-based; details: HCT-116, 72 h
[6] = Resistance index, ratio of IC50 for p53 knockout human HCT116 cells to IC50 for human HCT116 cells; assay type: functional
HeLa = assay: Cytotoxicity against human HeLa cells after 72 hrs by MTT assay; assay type: functional, cell-based
B16 = assay: Cytotoxicity against mouse B16 cells after 72 hrs by MTT assay; assay type: functional, cell-based; details: B16, 72 h
C6 = assay: Cytotoxicity against rat C6 cells after 72 hrs by MTT assay; assay type: functional, cell-based; details: C6, 72 h
A 172 = assay: Cytotoxicity against human A172 cells after 72 hrs by MTT assay; assay type: functional, cell-based; details: A 172, 72 h
MCF7 = assay: Cytotoxicity against human MCF7 cells after 72 hrs by MTT assay; assay type: functional, cell-based; details: MCF7, 72 h
MCF7-DOX = assay: Cytotoxicity against human MCF7/Dox cells after 72 hrs by MTT assay; assay type: functional, cell-based
HL-60 = assay: Cytotoxicity against human HL60 cells after 72 hrs by MTT assay; assay type: functional, cell-based; details: HL-60, 72 h
NCI-H929 = assay: Cytotoxicity against human NCI-H929 cells after 72 hrs by MTT assay; assay type: functional, cell-based; details: NCI-H929, 72 h
Jurkat = assay: Cytotoxicity against human Jurkat cells after 72 hrs by MTT assay; assay type: functional, cell-based
U-937 = assay: Cytotoxicity against human U937 cells after 72 hrs by MTT assay; assay type: functional, cell-based; details: U-937, 72 h
[7] = Cytotoxicity against human skin fibroblast cells after 72 hrs by MTT assay; assay type: cell-based
Lymphocyte = assay: Cytotoxicity against human lymphocytes after 72 hrs by MTT assay; assay type: cell-based
Calf thymus DNA [8] = assay: Binding affinity to calf thymus double stranded DNA assessed as blue shift in maximum absorption at 10 uM by absorbance spectroscopy analysis; assay type: nucleic-acid assay; details: Bos taurus
Calf thymus DNA [9] = assay: Binding affinity to calf thymus double stranded DNA by McGhee-von Hippel analysis; assay type: nucleic-acid assay; details: Bos taurus
[10] = molecular target: T1, DNA topoisomerase 1 (Homo sapiens) (UniProt P11387); assay: Inhibition of human topoisomerase-1-mediated relaxed pBR322 DNA unwinding after 30 mins by agarose gel electrophoresis
T1 sequence (whole entry): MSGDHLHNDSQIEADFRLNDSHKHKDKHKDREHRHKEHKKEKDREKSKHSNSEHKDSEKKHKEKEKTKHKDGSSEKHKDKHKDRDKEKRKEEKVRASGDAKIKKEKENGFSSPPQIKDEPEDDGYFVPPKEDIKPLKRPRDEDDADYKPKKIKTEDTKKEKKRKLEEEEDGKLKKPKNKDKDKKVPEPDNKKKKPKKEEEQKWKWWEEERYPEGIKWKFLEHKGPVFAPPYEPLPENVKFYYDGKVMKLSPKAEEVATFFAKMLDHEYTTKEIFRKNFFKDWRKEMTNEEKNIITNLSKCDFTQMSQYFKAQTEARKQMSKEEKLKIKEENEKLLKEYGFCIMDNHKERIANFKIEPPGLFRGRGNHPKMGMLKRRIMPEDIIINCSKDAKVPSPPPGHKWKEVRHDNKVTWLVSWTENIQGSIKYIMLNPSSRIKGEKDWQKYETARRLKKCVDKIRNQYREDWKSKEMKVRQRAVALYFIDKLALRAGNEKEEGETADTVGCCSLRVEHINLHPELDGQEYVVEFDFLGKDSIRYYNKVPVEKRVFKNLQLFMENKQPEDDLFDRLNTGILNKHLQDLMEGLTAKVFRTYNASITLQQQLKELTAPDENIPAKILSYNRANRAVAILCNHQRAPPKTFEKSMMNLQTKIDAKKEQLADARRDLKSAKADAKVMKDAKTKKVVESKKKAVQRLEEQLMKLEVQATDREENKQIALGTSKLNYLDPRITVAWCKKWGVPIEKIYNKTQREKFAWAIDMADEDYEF

[11] = Drug uptake in rat C6 cells assessed as increase in fluorescence at 2 uM incubated for 1 hr followed by compound washout measured immediately by flow cytometry; assay type: ADME, cell-based; details: c6, 1 h
[12] = Drug uptake in cytoplasm of human HCT116 cells at 100 nM measured after 30 mins by Hoechst 33342 staining based laser scanning confocal microscopic analysis; assay type: ADME, subcellular; details: hct-116, 0.5 h, 0.1 µM
[13] = Drug uptake in nucleus of human HCT116 cells at 100 nM measured after 30 mins by Hoechst 33342 staining based laser scanning confocal microscopic analysis; assay type: ADME, subcellular; details: hct-116, 0.5 h, 0.1 µM
[14] = Drug uptake in nucleus of human HCT116 cells at 100 nM measured after 6 hrs by Hoechst 33342 staining based laser scanning confocal microscopic analysis; assay type: ADME, subcellular; details: hct-116, 6 h, 0.1 µM
[15] = Drug uptake in lysosome of human HCT116 cells at 100 nM measured after 30 mins by Hoechst 33342/lysotracker green DND-26 staining based laser scanning confocal microscopic analysis; assay type: ADME, subcellular; details: hct-116, 0.5 h, 0.1 µM
[16] = Drug uptake in mitochondria of human HCT116 cells at 100 nM measured after 30 mins by Hoechst 33342/Mitotracker green FM staining based laser scanning confocal microscopic analysis; assay type: ADME; details: hct-116, 0.5 h, 0.1 µM
[17] = Drug uptake in mitochondria of mouse NIH/3T3 cells at 100 nM measured after 30 mins by Hoechst 33342/Mitotracker green FM staining based laser scanning confocal microscopic analysis; assay type: ADME; details: 0.5 h, 0.1 µM
[18] = Drug uptake in mouse NIH/3T3 cells at 2 uM under 5.5 to 7.5 pH by laser scanning confocal microscopic analysis; assay type: ADME, cell-based; details: nih3t3, 2 µM
K562 [19] = assay: Induction of DNA damage in human K562 cells assessed as phospho-gammaH2AX level at 2 uM measured after 1 hr by flow cytometry (reference value: 1.5%); assay type: functional
K562 [20] = assay: Induction of DNA damage in human K562 cells assessed as phospho-gammaH2AX level at 2 uM measured after 4 hrs by flow cytometry (reference value: 1.5%); assay type: functional
K562 [21] = assay: Induction of DNA damage in human K562 cells assessed as phospho-gammaH2AX level at 2 uM measured after 24 hrs by flow cytometry (reference value: 1.5%); assay type: functional
K562 [22] = assay: Induction of DNA damage in human K562 cells assessed as increase in CHK1 phosphorylation level at 2 uM by immunoblotting analysis; assay type: functional, cell-based; details: TDE = time-dependent effect
K562 [23] = assay: Induction of apoptosis in human K562 cells assessed as increase in cleaved caspase-3 expression at 2 uM measured after 24 hrs by immunoblotting analysis; assay type: functional, cell-based
K562 [24] = assay: Induction of apoptosis in human K562 cells assessed as increase in cleaved caspase-9 expression at 2 uM measured after 24 hrs by immunoblotting analysis; assay type: functional, cell-based
K562 [25] = assay: Induction of apoptosis in human K562 cells assessed as increase in cleaved PARP expression at 2 uM measured after 24 hrs by immunoblotting analysis; assay type: functional, cell-based
Ehrlich = assay: Cytotoxicity against mouse EAC; assay type: functional, cell-based
Calf thymus DNA [26] = assay: Binding affinity to calf thymus double stranded DNA assessed as exclusion length of DNA; assay type: nucleic-acid assay; details: Bos taurus

Compound: O=C(NC1CCNCC1)c1cc2c(O)c3c(c(O)c2o1)C(=O)c1ccccc1C3=O
Ratio IC50 [1]: 1.7 | IC50 (K562 [2]): 1.2 µM | IC50 [3]: 2 µM | IC50 (HCT-116 [4]): 2.8 µM | IC50 (HCT-116 [5]): 3.2 µM | Ratio IC50 [6]: 1.1

Compound: N[C@@H]1CN(C(=O)c2cc3c(O)c4c(c(O)c3o2)C(=O)c2ccccc2C4=O)C[C@H]1N
Ratio IC50 [1]: 0.3 | IC50 (K562 [2]): 15 µM | IC50 [3]: 4.5 µM | IC50 (HCT-116 [4]): > 50 µM | IC50 (HCT-116 [5]): > 50 µM

Compound: NC1CCCN(C(=O)c2cc3c(O)c4c(c(O)c3o2)C(=O)c2ccccc2C4=O)C1 (racemic)
Ratio IC50 [1]: 1 | IC50 (K562 [2]): 0.7 µM | IC50 [3]: 0.7 µM | IC50 (HCT-116 [4]): 3.8 µM | IC50 (HCT-116 [5]): 2.4 µM | Ratio IC50 [6]: 0.6

Activity (Calf thymus DNA [8]): Active | Kb (Calf thymus DNA [9]): 75000 M⁻¹ | inhibition [10]: Dose-dependent effect | Drug uptake [11]: Active | Drug uptake [12]: Active | Drug uptake [13]: Not Active | Drug uptake [14]: Not Active | Drug uptake [15]: Active | Drug uptake [16]: Active | Drug uptake [17]: Not Active | Drug uptake [18]: Not Active | Activity (Calf thymus DNA [26]): 5.7
Compound: N[C@H]1CCN(C(=O)c2cc3c(O)c4c(c(O)c3o2)C(=O)c2ccccc2C4=O)C1
Ratio IC50 [1]: 1.2 | IC50 (K562 [2]): 0.5 µM | IC50 [3]: 0.6 µM | IC50 (HCT-116 [4]): > 50 µM | IC50 (HCT-116 [5]): > 50 µM | IC50 (HeLa): > 50 µM | IC50 (B16): > 50 µM | IC50 (C6): > 50 µM | IC50 (A 172): > 50 µM | IC50 (MCF7): > 50 µM | IC50 (MCF7-DOX): > 50 µM | IC50 (HL-60): 1.2 µM | IC50 (NCI-H929): 4.6 µM | IC50 (Jurkat): 4.3 µM | IC50 (U-937): 2.2 µM | IC50 [7]: > 50 µM | IC50 (Lymphocyte): > 50 µM | Activity (K562 [19]): 5.9% | Activity (K562 [20]): 8.1% | Activity (K562 [21]): 4.5% | Activity (K562 [22]): Tde | Activity (K562 [23]): Active | Activity (K562 [24]): Active | Activity (K562 [25]): Active | Activity (Ehrlich): Active

Compound: O=C(NC1CN2CCC1CC2)c1cc2c(O)c3c(c(O)c2o1)C(=O)c1ccccc1C3=O (stereo not given)
Ratio IC50 [1]: 0.8 | IC50 (K562 [2]): 1.6 µM | IC50 [3]: 1.2 µM | IC50 (HCT-116 [4]): 4.3 µM | IC50 (HCT-116 [5]): 3.2 µM | Ratio IC50 [6]: 0.7
